According to patent publication EP4509497A1, “METHOD FOR PRODUCING ACETYLSALICYLIC ACID NICOTINAMIDE COCRYSTALS AND ACETYLSALICYLIC ACID NICOTINAMIDE COCRYSTALS WITH IMPROVED SOLUBILITY” (Ruhr-Universität Bochum, priority 2023, dated 2025):
Values after ≈ are worked out from the molar mass of the structure shown.

Assay: Solubility determination (gravimetric, saturated aqueous samples)
Type: physicochemical
Description: Es wurden 15 mL gesättigter wässriger Proben mit Niederschlag in 20 mL-Fläschchen mit dem Acetylsalicylsäure-Nicotinsäureamid-Co-Kristall (1:1), ASS und NIC angesetzt. Die Proben wurden bei Raumtemperatur mit einem Magnetrührer homogenisiert. Nach 1 h und 2 h werden von jeder Probe 4-mal ca. 1 mL Lösung entnommen (4-fach Bestimmung) und durch ein Vorspritzfilter in ein leeres 4 mL Fläschchen überführt. Die Fläschchen werden dann bis zur Verdampfung des Lösemittels offen stehengelassen. Die Fläschchen wurden leer, mit der gesättigten Lösung und nach dem Verdampfen gewogen. Die Löslichkeit in Masseprozent ergibt sich über die Differenz aus Gewicht nach dem Verdampfen und dem Leegewicht.

| Compound | solubility thermodynamic at 1 h (water) | solubility thermodynamic at 2 h (water) | ASS-Löslichkeit gesteigert um einen Faktor (ASS in co-crystal (ASS:NA 1:1) versus pure ASS, Fig. 7, after 1 h) | Löslichkeit Nach 1 h (water, 1 h) | Löslichkeit Nach 1 h (ASS im Co-Kristall) (water, 1 h) | Löslichkeit Nach 2 h (water, 2 h) | Löslichkeit Nach 2 h (ASS im Co-Kristall) (water, 2 h) |
| --- | --- | --- | --- | --- | --- | --- | --- |
| CC(=O)Oc1ccccc1C(=O)O [Acetylsalicylsäure, 2-Acetoxybenzoesäure, reference compound] | 4140 µg/mL (≈ 23 mM) | 4260 µg/mL (≈ 23.6 mM) | – | – | – | – | – |
| Acetylsalicylsäure-Nicotinsäureamid-Co-Kristall | – | – | ca. 2,5 | 1,768 ω % | 1,054 ω % | 1,777 ω % | 1,059 ω % |
